Assay results reported in patent US8980911B2, “Heterocyclic compounds as protein kinase inhibitors” (Daiichi Sankyo Company, Limited, priority 2011, dated 2015).

Tests used:
Type in all cases: biochemical
JAK1 = target: T1, JAK1 (Homo sapiens, UniProt P23458); assay: In vitro enzyme assay (cell-free HTRF kinase assay), JAK1; details: catalytic domain aa 850-1154, GST-tag; ATP 60 μM, SRCtide 400 nM, reaction 120 min
T1 construct: JAK1 (aa 850-1154) and TYK2 (aa 871-1187) are expressed with an N-terminally fused GST-tag; GST (N); purchased Carna Bioscience, Inc; host or cells: baculovirus expression system
T1 sequence (P23458 850-1154): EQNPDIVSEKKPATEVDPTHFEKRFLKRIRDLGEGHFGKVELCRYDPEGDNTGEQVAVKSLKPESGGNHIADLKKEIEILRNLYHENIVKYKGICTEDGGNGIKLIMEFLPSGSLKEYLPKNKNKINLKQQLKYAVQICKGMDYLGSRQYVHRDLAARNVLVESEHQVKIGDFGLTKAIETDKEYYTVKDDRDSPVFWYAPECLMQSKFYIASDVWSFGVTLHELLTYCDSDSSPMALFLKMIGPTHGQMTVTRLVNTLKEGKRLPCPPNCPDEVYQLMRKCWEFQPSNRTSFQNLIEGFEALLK
Experimental: (§1) Kinase buffer [50 mM HEPES (pH 7.5), 1 mM EGTA, 10 mM MgCl2, 2 mM DTT and 0.01% Tween-20) was prepared and dilutions of a compound of formula (I) and other reagents were subsequently made in it. Two times concentrated compound of formula (I) solution: A compound of formula (I) was diluted to 100-fold final concentration in DMSO, followed by 50-fold dilution with Kinase buffer (1% DMSO final concentration). Four times concentrated Substrate/ATP mix solution: Biotin-SRCtide and ATP were diluted to 4-fold final concentration in Kinase buffer. Biotin-SRCtide solution (purchased from Anaspec) was mixed with ATP solution (1:1). Four times concentrated Enzyme solution: JAK1 or JAK2 or JAK3 or TYK2 enzyme [Human baculo virus expressed JAK1, JAK2, JAK3 and TYK2 were purchased from Carna Bioscience, Inc. All enzymes only contain the catalytic domain. JAK1 (aa 850-1154) and TYK2 (aa 871-1187) are expressed with an N-terminally fused GST-tag, and JAK2 and JAK3 with an N-terminally fused His-tag] was diluted to 4-fold final concentration in Kinase buffer and always kept on ice. Detection buffer: LANCE detection buffer (10 times concentrated) was diluted 10-fold in H2O. Four times concentrated stop solution: EDTA was diluted to a concentration of 40 mM in detection buffer. Four times concentrated ULight/Eu-antibody (from Perkin Elmer) mix solution: ULight-Streptavidin was diluted to a concentration of 100 nM (25 ng/mL final concentrations) and Eu-anti-phospho-Tyrosine (PT66) (from Perkin Elmer) was diluted to a concentration of 8 nM (2 ng/mL final concentration) in detection buffer.
(§2) Cell-free in vitro kinase assay was performed in 384 well plates. Two times concentrated compound solution (5 μL) was pipetted into a HTS 384SV Small Volume Plate. Four times concentrated Substrate/ATP mix (2.5 μL) solution was added along with 4 times concentrated Enzyme solution (2.5 μL). Plate was covered with TopSeal-A and incubated at room temperature for indicated time (Table 3). Four times concentrated Stop solution (5 μL, 10 mM final concentration) was added and incubated for 5 minutes at room temperature. Four times concentrated ULight/Eu-antibody mix solution (5 μL) was added and again plate was covered with TopSeal and incubated overnight at 4° C. TopSeal was removed and HTRF signal was measured at 615 nm and […] (excitation at 320 or 340 nm) on Tecan M1000 Multi mode plate reader. Ratio (665 nm/615 nm)×10^4 was calculated and IC50 values were deduced from Graph-pad prism 4.2.

JAK2 = target: T2, JAK2 (Homo sapiens, UniProt O60674); assay: In vitro enzyme assay (cell-free HTRF kinase assay), JAK2; details: catalytic domain, His-tag; ATP 10 μM, SRCtide 25 nM, reaction 30 min
T2 construct: All enzymes only contain the catalytic domain; His (N); purchased Carna Bioscience, Inc; host or cells: baculovirus expression system
T2 sequence (O60674 849-1124 limits assumed): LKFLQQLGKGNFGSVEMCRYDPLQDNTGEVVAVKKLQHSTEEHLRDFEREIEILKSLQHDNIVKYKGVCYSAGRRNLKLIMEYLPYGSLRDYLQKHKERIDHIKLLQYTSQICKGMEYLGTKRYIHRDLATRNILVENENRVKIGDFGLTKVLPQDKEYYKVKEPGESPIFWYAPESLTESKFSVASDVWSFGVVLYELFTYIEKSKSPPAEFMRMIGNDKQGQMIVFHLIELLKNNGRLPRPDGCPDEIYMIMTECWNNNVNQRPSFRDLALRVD
Experimental: as §1, §2

JAK3 = target: T3, JAK3 (Homo sapiens, UniProt P52333); assay: In vitro enzyme assay (cell-free HTRF kinase assay), JAK3; details: catalytic domain, His-tag; ATP 3 μM, SRCtide 100 nM, reaction 30 min
T3 construct: All enzymes only contain the catalytic domain; His (N); purchased Carna Bioscience, Inc; host or cells: baculovirus expression system
T3 sequence (P52333 822-1111 limits assumed): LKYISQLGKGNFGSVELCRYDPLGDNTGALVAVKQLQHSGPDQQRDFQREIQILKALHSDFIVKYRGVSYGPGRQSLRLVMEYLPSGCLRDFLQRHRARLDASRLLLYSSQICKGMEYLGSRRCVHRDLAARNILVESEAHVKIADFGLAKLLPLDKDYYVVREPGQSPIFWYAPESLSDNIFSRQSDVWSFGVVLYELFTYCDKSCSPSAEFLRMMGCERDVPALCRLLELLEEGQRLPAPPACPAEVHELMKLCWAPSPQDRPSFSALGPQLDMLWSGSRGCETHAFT
Experimental: as §1, §2

IC50 (JAK1)	IC50 (JAK2)	IC50 (JAK3)	Compound
< 1000 nM	< 1000 nM	< 1000 nM	CC(=O)Nc1nccc2c(C(=O)c3c(Cl)cc(C(=O)NCCN4CCCC4)cc3Cl)c[nH]c12 [Compound No. 44, 4-{[7-(Acetylamino)-1H-pyrrolo[2,3-c]pyridin-3-yl]carbonyl}-3,5-dichloro-N-[2-(pyrrolidin-1-yl)ethyl]benzamide]
< 1000 nM	< 100 nM	< 100 nM	O=C(c1c(Cl)cc(-c2cncnc2)cc1Cl)c1c[nH]c2c(NC(=O)C3CC3)nccc12 [Compound No. 47, N-{3-[2,6-Dichloro-4-(pyrimidin-5-yl)benzoyl]-1H-pyrrolo[2,3-c]pyridin-7-yl}cyclopropanecarboxamide]
< 500 nM	< 100 nM	< 50 nM	N#Cc1cc(F)c(C(=O)c2c[nH]c3c(NC(=O)C4CC4)nccc23)c(F)c1 [Compound No. 51, N-[3-(4-Cyano-2,6-difluorobenzoyl)-1H-pyrrolo[2,3-c]pyridin-7-yl]cyclopropanecarboxamide]
< 500 nM	< 500 nM	< 500 nM	O=C(NC1CC1)c1cc(Cl)c(C(=O)c2c[nH]c3c(NC(=O)C4CC4)nccc23)c(Cl)c1 [Compound No. 54, 3,5-Dichloro-N-cyclopropyl-4-({7-[(cyclopropylcarbonyl)amino]-1H-pyrrolo[2,3-c]pyridin-3-yl}carbonyl)benzamide]
< 500 nM	< 500 nM	< 500 nM	O=C(NCC1CC1)c1cc(Cl)c(C(=O)c2c[nH]c3c(NC(=O)C4CC4)nccc23)c(Cl)c1 [Compound No. 55, 3,5-Dichloro-4-({7-[(cyclopropylcarbonyl)amino]-1H-pyrrolo[2,3-c]pyridin-3-yl}carbonyl)-N-(cyclopropylmethyl)benzamide]
< 500 nM	< 500 nM	< 500 nM	CCOCCCNC(=O)c1cc(Cl)c(C(=O)c2c[nH]c3c(NC(=O)C4CC4)nccc23)c(Cl)c1 [Compound No. 56, 3,5-Dichloro-4-({7-[(cyclopropylcarbonyl)amino]-1H-pyrrolo[2,3-c]pyridin-3-yl}carbonyl)-N-(3-ethoxypropyl)benzamide]
< 1000 nM	< 1000 nM	< 1000 nM	O=C(c1c(Cl)cc(CO)cc1Cl)c1c[nH]c2c(NC(=O)C3CC3)nccc12 [Compound No. 58, N-{3-[2,6-Dichloro-4-(hydroxymethyl)benzoyl]-1H-pyrrolo[2,3-c]pyridin-7-yl}cyclopropanecarboxamide]
< 500 nM	< 500 nM	< 500 nM	O=C(NCCF)c1cc(F)c(C(=O)c2c[nH]c3c(NC(=O)C4CC4)nccc23)c(F)c1 [Compound No. 59, 4-({7-[(Cyclopropylcarbonyl)amino]-1H-pyrrolo[2,3-c]pyridin-3-yl}carbonyl)-3,5-difluoro-N-(2-fluoroethyl)benzamide]
< 500 nM	< 1000 nM	< 500 nM	CCNC(=O)c1cc(F)c(C(=O)c2c[nH]c3c(NC(=O)C4CC4)nccc23)c(F)c1 [Compound No. 60, 4-({7-[(Cyclopropylcarbonyl)amino]-1H-pyrrolo[2,3-c]pyridin-3-yl}carbonyl)-N-ethyl-3,5-difluorobenzamide]
< 1000 nM	< 500 nM	< 500 nM	CNC(=O)c1cc(F)c(C(=O)c2c[nH]c3c(NC(=O)C4CC4)nccc23)c(F)c1 [Compound No. 61, 4-({7-[(Cyclopropylcarbonyl)amino]-1H-pyrrolo[2,3-c]pyridin-3-yl}carbonyl)-3,5-difluoro-N-methylbenzamide]
< 1000 nM	< 500 nM	< 500 nM	O=C(NCCCO)c1cc(F)c(C(=O)c2c[nH]c3c(NC(=O)C4CC4)nccc23)c(F)c1 [Compound No. 62, 4-({7-[(Cyclopropylcarbonyl)amino]-1H-pyrrolo[2,3-c]pyridin-3-yl}carbonyl)-3,5-difluoro-N-(3-hydroxypropyl)benzamide]
< 500 nM	< 500 nM	< 500 nM	CN(C)CCNC(=O)c1cc(F)c(C(=O)c2c[nH]c3c(NC(=O)C4CC4)nccc23)c(F)c1 [Compound No. 63, 4-({7-[(Cyclopropylcarbonyl)amino]-1H-pyrrolo[2,3-c]pyridin-3-yl}carbonyl)-N-[2-(dimethylamino)ethyl]-3,5-difluorobenzamide]
< 500 nM	< 1000 nM	< 1000 nM	CCOCCCNC(=O)c1cc(F)c(C(=O)c2c[nH]c3c(NC(=O)C4CC4)nccc23)c(F)c1 [Compound No. 64, 4-({7-[(Cyclopropylcarbonyl)amino]-1H-pyrrolo[2,3-c]pyridin-3-yl}carbonyl)-N-(3-ethoxypropyl)-3,5-difluorobenzamide]
< 100 nM	< 100 nM	< 50 nM	CNCc1cc(Cl)c(C(=O)c2c[nH]c3c(NC(=O)C4CC4)nccc23)c(Cl)c1 [Compound No. 66, N-(3-{2,6-Dichloro-4-[(methylamino)methyl]benzoyl}-1H-pyrrolo[2,3-c]pyridin-7-yl)cyclopropanecarboxamide]
< 100 nM	< 500 nM	< 100 nM	CCNCc1cc(Cl)c(C(=O)c2c[nH]c3c(NC(=O)C4CC4)nccc23)c(Cl)c1 [Compound No. 67, N-(3-{2,6-Dichloro-4-[(ethylamino)methyl]benzoyl}-1H-pyrrolo[2,3-c]pyridin-7-yl)cyclopropanecarboxamide]
< 1000 nM	< 500 nM	< 500 nM	O=C(Nc1nccc2c1ccn2C(=O)c1c(Cl)cccc1Cl)C1CC1 [Compound No. 77, N-[1-(2,6-Dichlorobenzoyl)-1H-pyrrolo[3,2-c]pyridin-4-yl]cyclopropanecarboxamide]
< 1000 nM	< 500 nM	< 500 nM	N#Cc1cc(Cl)c(C(=O)n2ccc3c(NC(=O)C4CC4)nccc32)c(Cl)c1 [Compound No. 86, N-[1-(2,6-Dichloro-4-cyanobenzoyl)-1H-pyrrolo[3,2-c]pyridin-4-yl]cyclopropanecarboxamide]
< 500 nM	< 100 nM	< 1000 nM	Cc1noc(C)c1-c1cc(Cl)c(C(=O)n2ccc3c(NC(=O)C4CC4)nccc32)c(Cl)c1 [Compound No. 87, N-{1-[2,6-Dichloro-4-(3,5-dimethyl-1,2-oxazol-4-yl)benzoyl]-1H-pyrrolo[3,2-c]pyridin-4-yl}cyclopropanecarboxamide]
< 1000 nM	< 50 nM	< 500 nM	O=C(Nc1nccc2c1ccn2C(=O)c1c(Cl)cc(-c2cncnc2)cc1Cl)C1CC1 [Compound No. 89, N-{1-[2,6-Dichloro-4-(pyrimidin-5-yl)benzoyl]-1H-pyrrolo[3,2-c]pyridin-4-yl}cyclopropanecarboxamide]
< 500 nM	< 1000 nM	< 1000 nM	CCNC(=O)c1cc(Cl)c(C(=O)n2ccc3c(NC(=O)C4CC4)nccc32)c(Cl)c1 [Compound No. 93, 3,5-Dichloro-4-({4-[(cyclopropylcarbonyl)amino]-1H-pyrrolo[3,2-c]pyridin-1-yl}carbonyl)-N-ethylbenzamide]
< 1000 nM	< 500 nM	< 500 nM	N#Cc1cc(Cl)c(C(=O)n2ccc3cnccc32)c(Cl)c1 [Compound No. 95, 3,5-Dichloro-4-(1H-pyrrolo[3,2-c]pyridin-1-ylcarbonyl)benzonitrile]
